This is an account of results in patent US20100068150A1, “Selective Caspase Inhibitors” (The Board of Trustees of the Leland Stanford Junior …, priority 2006, published 2010).

Each structure is given as a SMILES string. Numbering of substitutions follows the chain as printed. Residues, ends and D or L forms follow the SMILES beside them. *: point of attachment. Cbz = O=C(OCc1ccccc1)*; CH2F = FC*

For assay [1], the target named is T1, Caspase-3 (Homo sapiens, UniProt P42574).
T1 sequence (P42574 29-175 limits assumed): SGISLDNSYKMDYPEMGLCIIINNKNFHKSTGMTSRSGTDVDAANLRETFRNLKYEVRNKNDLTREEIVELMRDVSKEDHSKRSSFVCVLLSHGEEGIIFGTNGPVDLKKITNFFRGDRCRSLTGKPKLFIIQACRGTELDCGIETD
T1 sequence (P42574 176-277 limits assumed): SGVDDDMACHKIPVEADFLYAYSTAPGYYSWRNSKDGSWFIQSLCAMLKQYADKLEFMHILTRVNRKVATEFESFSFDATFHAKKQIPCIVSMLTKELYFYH
Briefly: Kinetic compound screening, progress curve method, caspase-3. Type of assay: biochemical. An excerpt: (§1) Table III below presents Ki(app) values for select AB compounds. Ki(app) values (also called Kass or Kobs/I) represent the speed of inhibitor binding to a target enzyme. Units are [M^−1s^−1]. NI indicates no inhibition at concentrations tested. Parent compounds AB09, ABo8, and AB07 that include the optimal substrate specificity sequences for caspases-3, […] as determined by Thornberry and colleagues (Thornberry et al., 19970 are included between double lines.
(§2) The inhibitors AB07 (NP-LEHD-AOMK, caspase-9), AB08 (NP-LETD-AOMK, caspase-8), and AB09 (NP-DEVD-AOMK, caspase-3) were synthesized and kinetic inhibition constants (Kiapp) were obtained for all compounds for caspases 3, 7, 8 and 9 using the progress curve method for pseudo-first order reactions kinetics (Salvesen, 1989) (structures shown in Table I). […] Ki(app) values (also called Kass or Kobs/I) represent the speed of inhibitor binding to a target enzyme. Units are [M-1s-1]. NI indicates no inhibition at concentrations tested, ND indicates data not determined, SD indicates standard deviation.
(§3) Compound screening was completed using the progress curve method as described (Salvesen, 1989). All screening was carried out in caspase reaction buffer. The caspase-9 specific compounds AB38, 40, 41 and 42 were screened in caspase reaction buffer and in caspase buffer with 1M sodium citrate instead of sucrose as described (Pop, 2006) The concentrations of active caspases used is as follows: 5 nM active caspase-3, 5 nM active caspase-7, 10 nM active caspase-8, and 50 nM active caspase-9. To ensure full activation, caspases 3/7, 8 and 9 were preincubated at 37° C. for 5, 10, or 40 minutes respectively before kinetic measurements were made.

For the next assay, the system named is sepsis. Conditions: mouse model; cited from earlier work.
The target in another assay is Caspase-8 (Homo sapiens, UniProt Q14790). Briefly: Kinetic compound screening, progress curve method, caspase-8. Type of assay: biochemical.
Sequence of Caspase-8 (Q14790 217-479): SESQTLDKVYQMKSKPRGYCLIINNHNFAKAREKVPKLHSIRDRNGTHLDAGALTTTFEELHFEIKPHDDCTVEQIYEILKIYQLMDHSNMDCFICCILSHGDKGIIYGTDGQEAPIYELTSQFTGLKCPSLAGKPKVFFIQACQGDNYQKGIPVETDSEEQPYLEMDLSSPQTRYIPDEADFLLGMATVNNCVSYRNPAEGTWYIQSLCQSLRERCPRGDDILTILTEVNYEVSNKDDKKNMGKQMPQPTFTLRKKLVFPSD
From the text: as §1, §2, §3

For assay [2], the system named is death receptor-mediated liver injury. Conditions: animal models; cited from earlier work.
In a further assay the target is T2, Caspase-9 (Homo sapiens, UniProt P55211).
T2 sequence (P55211 1-416): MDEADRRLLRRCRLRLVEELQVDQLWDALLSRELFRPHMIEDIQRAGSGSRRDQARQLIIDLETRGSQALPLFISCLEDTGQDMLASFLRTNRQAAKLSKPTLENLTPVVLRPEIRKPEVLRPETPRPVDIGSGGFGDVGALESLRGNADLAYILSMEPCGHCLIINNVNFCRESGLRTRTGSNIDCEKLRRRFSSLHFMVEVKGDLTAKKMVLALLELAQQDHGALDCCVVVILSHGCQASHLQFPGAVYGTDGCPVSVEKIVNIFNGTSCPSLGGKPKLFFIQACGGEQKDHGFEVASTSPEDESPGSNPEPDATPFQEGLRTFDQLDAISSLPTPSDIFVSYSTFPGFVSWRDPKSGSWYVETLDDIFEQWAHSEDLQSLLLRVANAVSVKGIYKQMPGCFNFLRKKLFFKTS
Briefly: Kinetic compound screening, progress curve method, caspase-9. The assay is classed as biochemical. Conditions: NI = no inhibition at concentrations tested.
From the text: as §1, §2, §3

In assay [3] the test system is extrinsic and intrinsic apoptotic pathways after spinal cord injury. As to conditions: animal models; cited from earlier work.
The subject of assay [4] is Myocardial infarction and the resulting death of myocytes. Conditions: animal models; cited from earlier work.
For another assay, the target named is T3, Caspase-7 (Homo sapiens, UniProt P55210).
T3 sequence (P55210 1-303): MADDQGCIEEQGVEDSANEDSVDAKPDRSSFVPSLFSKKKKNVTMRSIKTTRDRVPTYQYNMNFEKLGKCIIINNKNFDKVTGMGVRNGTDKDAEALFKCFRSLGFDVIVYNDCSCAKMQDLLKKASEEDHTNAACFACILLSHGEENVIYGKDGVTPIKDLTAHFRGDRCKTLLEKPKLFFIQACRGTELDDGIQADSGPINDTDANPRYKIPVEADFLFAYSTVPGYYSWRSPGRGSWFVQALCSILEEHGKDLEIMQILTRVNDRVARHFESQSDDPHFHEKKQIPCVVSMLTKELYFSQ
Briefly: Kinetic compound screening, progress curve method, caspase-7. Type of assay: biochemical.
From the text: as §1, §2, §3

Another assay has as its system cathepsin B and legumain. Briefly: In vivo labeling of cathepsin B and legumain in kidney and spleen of normal mice. As to conditions: intravenous, tissues collected 2 hrs after injection. The protocol: The present selective caspase inhibitors may be used for in vivo imaging. Cy5-fluorescent labeled versions of AB46 and AB50 were injected into normal mice and labeling of cathepsins and legumain in kidney and spleen was monitored (FIG. 14).
Normal mice were intravenously injected with the probes and tissues were collected 2 hrs after injection. Tissues were homogenized and total protein samples were analyzed by SDS-PAGE followed by scanning of the gel using a fluorescent scanner.

Assay [5] has as its target T4, caspase-3 (Mus musculus, UniProt P70677).
T4 construct: from tissue; host or cells: thymus of Balb-c mice
T4 sequence (P70677 29-175 limits assumed): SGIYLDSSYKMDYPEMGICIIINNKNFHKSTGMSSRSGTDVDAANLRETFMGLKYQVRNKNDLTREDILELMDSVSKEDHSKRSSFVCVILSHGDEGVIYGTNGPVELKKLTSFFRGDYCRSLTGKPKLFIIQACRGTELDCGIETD
T4 sequence (P70677 176-277 limits assumed): T1 sequence (P42574 176-277 limits assumed) with V3T, D5E, D6E, H10Q, A46S, Q50L, D53H, F77L, A79S
Briefly: In vivo labeling of caspase-3 in the thymus of dexamethazone treated mice. As to conditions: dexamethazone 40 mg/kg IP, probe by tail vein after 12 or 24 hrs, 3 hrs circulation. An excerpt:
The following example utilizes dexamethazone-induced apoptosis in the thymus. See, Cristina et al., “Dexamethasone-induced apoptosis of thymocytes: role of glucocorticoid receptor-associated Src kinase and caspase-8 activation,” prepublished online as a Blood First Edition Paper on Aug. 29, 2002; DOI 10.1182/blood-2002-06-1779. This is a particularly simple model that allows one to activate apoptosis specifically in the thymus by injection of normal mice with low doses of dexamethazone. […] Also, one can monitor changes in activation of caspases with time after induction of apoptosis.
Wild Type Balb-c mice were injected with dexamethazone (40 mg/kg) by IP injection. After 12 or 24 hrs the general caspase probe AB50 was injected by tail vein and the probe allowed to circulate for 3 hrs, at which time tissues from thymus, lung, liver, and kidney were collected. We removed the thymus, kidney and lung and imaged the whole organs using the IVIS2000 system. The tissues were then analyzed by SDS-PAGE and fluorescent scanning of the gels. For comparison we monitored the levels of cleaved, active caspase-3 using a specific antibody. […] An antibody against actin was used as a loading control.

Turning to `COC(=O)C[C@H](NC(=O)[C@H](C)NC(=O)[C@@H](NC(=O)OCc1ccccc1)C(C)C)C(=O)CF` [ZVAD-fmk, benzyloxycarbonyl-Val-Ala-Asp-fluoromethylketone, reference compound] (Cbz-Val-Ala-Asp(OMe)-CH2F), the “Ki(app) Caspase-3” value on Caspase-3 [1] (Table III, Ki(app) = Kass or Kobs/I, 5 nM active caspase-3) stood at 25922 M⁻¹ s⁻¹. In addition, the “Caspase-3 Ki(app)” value on Caspase-3 [1] (Table IV) was 25,922 M-1s-1. Further, in the assay on sepsis, the effect on sepsis result is reported as “efficiently reduced”. For the same compound, the “Ki(app) Caspase-8” value on Caspase-8 (Table III, Ki(app) = Kass or Kobs/I, 10 nM active caspase-8) was 203286 M⁻¹ s⁻¹. In addition, the “Caspase-8 Ki (app)” value on Caspase-8 (Table IV, NI = no inhibition at concentrations tested) is listed as 203,286 M-1s-1. Further, the “protection against liver injury” value in assay [2] was “protective and efficiently blocked death receptor-mediated liver injury”. The “Ki(app) Caspase-9” value on Caspase-9 (Table III, Ki(app) = Kass or Kobs/I, 50 nM active caspase-9) is <5,000 M^−1s^−1. Moreover, the “Caspase-9 Ki (app)” value at Caspase-9 (Table IV) is <5,000 M-1s-1. Moreover, the “effect after spinal cord injury” value in [3] was “reduced lesion size and improved motor function”. Also, in [4], the “effect on myocardial infarction and death of myocytes” value is on record as “ameliorated”. Further, at Caspase-7 (Table III, Ki(app) = Kass or Kobs/I, 5 nM active caspase-7), the “Ki(app) Caspase-7” value is <5,000 M^−1s^−1. In addition, the “Caspase-7 Ki (app)” value at Caspase-7 (Table IV) is listed as <5,000 M-1s-1.

Take `Cc1cccc(C)c1C(=O)OCC(=O)[C@H](CC(=O)O)NC(=O)C1CCCN1C(=O)[C@@H](CCC(=O)O)NC(=O)Cc1ccc(O)c([N+](=O)[O-])c1` (stereo partly drawn) [AB50, NP-E-P- D-AOMK]: the “in vivo labeling in kidney and spleen” value with cathepsin B and legumain was “only labeled legumain”. Besides, on caspase-3 [5], the “in vivo labeling of caspase-3 in thymus” value is “Bands can be clearly seen at the caspase-3 estimated MW”.
